# “Also recorded” adds a separate entry of the source. Where two headings read alike, the source gives them in different places.
# Key:
# Assay type in all cases: cell-based
# [1] = target: T1, slowly activating cardiac delayed rectifier potassium current (IKs) (Cavia porcellus, UniProt O70344); test: Whole-cell voltage-clamp of IKs in guinea pig ventricular myocytes; settings: for V1/2 of IKs activation (isochronal, 7.5 s pulses): control 19.2±1.6 mV
# T1 construct: Guinea pig ventricular myocytes were isolated as described; endogenous in cells; host or cells: isolated guinea pig ventricular myocytes
# Source text: (§1) Isolation of guinea pig ventricular myocytes.
# (§2) Voltage-clamp of guinea pig ventricular myocytes. […] Pipettes were made from square bore (1.0 mm, o.d.) borosilicate capillary tubing (Glass Co. of America, Bargaintown, N. J.). […] (average 5.5±0.3 M.OMEGA.). Series resistance was compensated 40-70%. Currents were low-pass filtered (-3 dB at 0.2 kHz) before digitization at 1 kHz. […] Cells were voltage clamped at a holding potential (Vh) of -50 mV to inactivate INa. Time-dependent IKs amplitude was measured as the difference from the initial instantaneous current, following the settling of the capacity transient, to the final current level at the end of a depolarizing pulse. Tail current amplitude, IKtail, was measured as the difference from the holding current level to the peak tail current amplitude upon return to Vh. IKtail was normalized to the maximum measured amplitude (IKtail-max) following 7.5 s pulses. Averaged data was fit to a Boltzmann distribution of the form: IKtail /IKtail-max =1/(1+exp[(V1/2 -Vt)/k]) with a nonlinear least squares fitting routine (Origin, Microcal Software, Northampton, Mass.) to estimate the half-point (V1/2) and slope factor (k) for this relationship. The time courses of IKs activation and deactivation were fit with a double exponential relationship of the form: It =A0 +A1 e^-t/t 1+A2 e^-t/t 2 using a Chebeshev non-iterative fitting technique (pCLAMP, Axon Instruments, Foster City, Calif.).
# (§3) Solutions. Compounds were dissolved in dimethyl sulfoxide (DMSO) at a stock concentration of 1 or 10 mM and diluted directly into test solutions. Serial dilutions were used to achieve the final test concentrations. […] Nisoldipine was prepared as a 4 mM stock solution in DMSO and diluted as needed.
# (§4) Statistics. Data are expressed as mean ± SEM (N=number of cells). Concentration-dependent changes in AP parameters and individual ionic currents were assessed by repeated-measures analysis of variance (ANOVA). Post-Hoc comparison of the treatment to the control means were made with Dunnett's t-test to determine significant changes between the control and test group means. Statistical comparisons for the time constants of IKs activation and deactivation were made using a paired t-test. A one-tailed probability (p)<0.05 was considered significant.
# [2] = test system: guinea pig isolated ventricular myocytes; test: Action potential studies in guinea pig isolated ventricular myocytes
# Source text: Isolation of guinea pig ventricular myocytes. Guinea pig ventricular myocytes were isolated as described (Salata J J, Jurkiewicz N K, Wallace A A, Stupienski R F III, Guinosso P J Jr and Lynch J J Jr. (1995). Cardiac electrophysiologic actions of the histamine H1 -receptor antagonists astemizole and terfenadine compared with chlorpheniramine and pyrilamine. Circ Res 76: 110-119.). After isolation, the cells were stored in HEPES-buffered saline (HBS) containing (mM): 132 NaCl, 4 KCl, 1.8 CaCl2, 1.2 MgCl2, 10 HEPES (formal name N-2-Hydoxyethylpiperazine-N-2-ethanesulfonic acid), 10 glucose, pH=7.2, at 24-26° C. until studied, usually within 8 hours after isolation.
# Action potential studies. Transmembrane potentials were recorded using conventional microelectrodes filled with 3 M KCl (tip resistances 30-50 M.OMEGA.) using an Axoclamp 2B amplifier (Axon Instruments; Foster City, Calif.) as described (Fermini B, Jurkiewicz N K, Jow B, Guinosso P J Jr, Baskin E P, Lynch J J Jr and Salata J J. (1995). Use-dependent effects of the Class III antiarrhythmic agent NE-10064 (azimilide) on cardiac repolarization: Block of delayed rectifier potassium and L-type calcium currents. J Cardiovasc Pharmacol 26: 259-271.). Cells were superfused with HBS maintained at 37° C. at a rate of 2 ml/min. APs were evoked with brief current pulses (1 ms, 1.2 times threshold) delivered at a frequency of 1 Hz through the recording electrode using an active bridge circuit. Only cells showing normal AP configurations and resting membrane potentials equal to or more negative than -85 mV were used in this study. APs were studied after a ≥5 min control period, and after ≥5 min of superfusion with each concentration of drug. After reaching a steady state effect under each condition, 20 individual APs were sampled and digitally averaged. The amplitude at 50 ms (APA50 ms) and duration at 90% repolarization (APD90) were measured from the digitally averaged records. Concentration-response relationships were determined by measuring APs or currents in each cell under control conditions and during superfusion with successively increasing concentrations of a given drug.
# (§5) Solutions. Compounds were dissolved in dimethyl sulfoxide (DMSO) at a stock concentration of 1 or 10 mM and diluted directly into test solutions. Serial dilutions were used to achieve the final test concentrations. DMSO at the concentrations used had no significant effect on any of the parameters measured in these studies. Nisoldipine was prepared as a 4 mM stock solution in DMSO and diluted as needed.
# as §4
# [3] = test system: slowly activating cardiac delayed rectifier potassium current (IKs); test: Whole-cell voltage-clamp of IKs in guinea pig ventricular myocytes; settings: 10 nM Iso alone; 0.5 s pulses
# Source text: as §1, §2, §3, §4
# [4] = target: T2, human KvLQT1 channels (Homo sapiens, UniProt P51787); test: Two-microelectrode voltage clamp of cloned KvLQT1 channels expressed in Xenopus oocytes; settings: 1 μM
# T2 construct: homotetramer
# Experimental: cRNA injection and voltage-clamp of oocytes. The isolation and maintenance of Xenopus oocytes, in vitro transcription of KvLQT1 complementary RNA (cRNA) and its injection into oocytes were performed as described previously (Sanguinetti M C, Curran M E, Zou A, Shen J, Spector P S, Atkinson D L and Keating M T. (1996b). Coassembly of KvLQT1 and minK (IsK) proteins form cardiac IKs potassium channel. Nature 384: 80-83.; Sanguinetti M C, Jiang C, Curran M E and Keating M T. (1995). A mechanistic link between an inherited and an acquired cardiac arrhythmia: HERG encodes the IKr potassium channel. Cell 81: 299-307.). Stage V and VI oocytes were injected with 11.5 ng of KvLQT1 cRNA (46 nL of a 250 ng/μL solution) Currents were recorded 2 to 4 days later using standard two-microelectrode voltage clamp techniques and a Dagan TEV-200 amplifier. Oocytes were bathed at room temperature (22-25° C.) in a solution containing (mM): 94 NaCl, 2 KCl, 2 MgCl2, 0.1 CaCl2, 5 HEPES; pH 7.6.
# as §5
# [5] = 1 μM, read-out: Agonist Effect - % Increase in IKs, Vt +50 mV
# [6] = 10 μM, read-out: Agonist Effect - % Increase in IKs, Vt +50 mV
# [7] = 10 μM, read-out: Agonist Effect - % Increase in IKs, Vt -10 mV
# T2 sequence (P51787 whole entry): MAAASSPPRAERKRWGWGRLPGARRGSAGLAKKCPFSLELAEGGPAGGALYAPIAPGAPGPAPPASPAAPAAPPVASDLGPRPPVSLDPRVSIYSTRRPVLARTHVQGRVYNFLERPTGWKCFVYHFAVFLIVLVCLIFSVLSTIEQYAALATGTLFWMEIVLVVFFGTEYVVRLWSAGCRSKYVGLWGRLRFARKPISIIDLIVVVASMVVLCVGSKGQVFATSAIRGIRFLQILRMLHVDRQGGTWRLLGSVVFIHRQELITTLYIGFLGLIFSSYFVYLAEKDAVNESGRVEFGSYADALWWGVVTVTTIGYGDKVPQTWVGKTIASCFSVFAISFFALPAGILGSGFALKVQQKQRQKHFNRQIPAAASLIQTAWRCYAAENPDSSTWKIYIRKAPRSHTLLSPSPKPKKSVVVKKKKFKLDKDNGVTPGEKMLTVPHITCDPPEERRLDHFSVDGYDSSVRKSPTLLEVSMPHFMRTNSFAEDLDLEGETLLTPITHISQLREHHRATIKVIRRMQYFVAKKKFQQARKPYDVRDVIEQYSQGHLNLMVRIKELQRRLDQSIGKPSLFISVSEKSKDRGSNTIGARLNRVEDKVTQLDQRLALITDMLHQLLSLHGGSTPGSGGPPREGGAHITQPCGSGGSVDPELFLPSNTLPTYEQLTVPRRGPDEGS
smiles,measurement,setting,value
CN1C(=O)[C@H](Cc2c[nH]c3ccccc23)N=C(c2ccccc2F)c2ccccc21 [S-L3],inhibition at 1 µM,"[1]; 1 μM, end of a 1-s test pulse to +50 mV, read-out: block of IKs",14.8 ± 4.3%
same,inhibition at 10 µM,"[1]; 10 μM, end of a 1-s test pulse to +50 mV, read-out: block of IKs",68.8 ± 3.4%
same,effect on IKs,"[1]; 1 to 10 μM, test potentials -10 to +50 mV",blocked IKs at all concentrations
"O=C1CC2(CCN(C(=O)Nc3ccccc3)CC2)Oc2ccccc21 [L7, N-phenyl-1'-(carboxamido)-spiro[2H-1-benzopyran-2,4'-piperidin]-4(3H)-one]","Agonist Effect - % Increase in IKs, Vt -10 mV",[1]; 1 μM,no change
same,activation at 1 µM,[1]; [5],111 ± 28%
"Cc1cccc(NC(=O)N2CCC3(CC2)CC(=O)c2ccccc2O3)c1 [L8, N-(3-tolyl)-1'-(carboxamido)-spiro[2H-1-benzopyran-2,4'-piperidin]-4(3H)-one]","Agonist Effect - % Increase in IKs, Vt -10 mV",[1]; 10 μM,no change
same,activation at 10 µM,[1]; [6],65 ± 17%
"O=C1Nc2ccc(Cl)cc2C(c2ccccc2)=N[C@@H]1Cc1c[nH]c2ccccc12 [R-L5, (3-R)-7-chloro-1,3-dihydro-5-phenyl-3-(1H-indol-3-ylmethyl)-2H-1,4-benzodiazepin-2-one]",activation at 10 µM,[1]; [6],22 ± 6%
same,activation at 10 µM,[1]; [7],22 ± 10%
"CC(C)(C)NC[C@H](O)COc1nsnc1N1CCOCC1 [timolol, reference compound]",effect on AP configuration,[2]; 100 nM timolol,did not alter AP configuration
same,effect on the effects of 30 nM Iso on the action potential,[2]; 100 nM timolol,prevented the effects of 30 nM Iso
"CC(C)NCC(O)c1ccc(O)c(O)c1 (stereo not drawn) [Iso, isoproterenol, reference compound]",decrease in APD90,[2]; 30 nM Iso alone,12.9±2.9%
same,activation at 0.03 µM,"[2]; Cavia porcellus, Ventricular myocyte, 30 nM Iso alone, read-out: increase in APA50ms",6.6 ± 2.9%
same,increase in IKs,[3],1.75 fold
"O=C1Nc2ccccc2C(c2ccccc2F)=N[C@@H]1Cc1c[nH]c2ccccc12 [R-L4, (3-R)-1,3-dihydro-5-(2-fluorophenyl)-3-(1H-indol-3-ylmethyl)-2H-1,4-benzodiazepin-2-one]",activation at 1 µM,[1]; [5],44 ± 9%
same,activation at 1 µM,"[1]; 1 μM, read-out: Agonist Effect - % Increase in IKs, Vt -10 mV",27 ± 7%
same,activation at 10 µM,[1]; [6],114 ± 13%
same,activation at 10 µM,[1]; [7],153 ± 37%
"CN1C(=O)[C@@H](Cc2c[nH]c3ccccc23)N=C(c2ccccc2F)c2ccccc21 [R-L3, (3-R)-1,3-dihydro-5-(2-fluorophenyl)-3-(1H-indol-3-ylmethyl)-1-methyl-2H-1,4-benzodiazepin-2-one]",decrease in APD90,[2]; 1 μM R-L3 in the continued presence of 100 nM timolol,14.6±2.2%
same,decrease in APD90,[2]; 1 μM R-L3 in the presence of 30 nM Iso,26.9±1.4%
same,decrease in APD90,"[2]; 1 μM, stimulation at 1 Hz",14.2±1.6%
same,decrease in APD90,"[2]; 10 μM, stimulation at 1 Hz",13.8±4.0%
same,effect on APD,"[2]; 0.1-1.0 μM, 1 Hz",concentration-dependent shortening of APD
same,concentration at which shortening of APD was maximal,[2]; 1 Hz,1 µM
same,fold induction at 0.03 µM,"[1]; 30 nM, 3 s depolarizations to Vt -10 mV from Vh -50 mV, read-out: IKs increased by a factor",17 ± 5
same,"V1/2 of IKs activation (isochronal, 7.5 s pulses)",[1]; 0.1 μM,3.0±0.8 mV
same,activation at 0.1 µM,"[1]; 0.1 μM, read-out: Agonist Effect - % Increase in IKs, Vt +50 mV",25 ± 6%
same,activation at 0.1 µM,"[1]; 0.1 μM, read-out: Agonist Effect - % Increase in IKs, Vt -10 mV",431 ± 123%
same,fast time constants of IKs activation,[1]; 1 μM,"slightly, but not significantly, faster"
same,maximally activated IKs,"[1]; 1 μM, Vt +60 mV, control 896±196 pA, not significantly increased",953±183 pA
same,"V1/2 of IKs activation (isochronal, 7.5 s pulses)",[1]; 1 μM,-4.9±3.4 mV
same,shift of V1/2 of IKs activation,"[1]; 1 μM, following pretreatment with 100 nM timolol",-19 mV
same,activation at 1 µM,[1]; [5],40 ± 12%
same,effect on time-dependent IKs at the end of 7.5 s pulses,"[1]; 10 μM, Vh -50 mV","increased time-dependent IKs at the end of 7.5 s pulses to potentials <+10 mV, but decreased IKs at more positive potentials"
same,effect on slope factor k of IKs activation,"[1]; 0.1 and 1 μM, control k 11.0±1.2 mV",not significantly changed; also recorded: had no effect on k
same,fast and slow time constants of IKs deactivation,[1]; -60 to -10 mV following 3 s pre-pulse to +30 mV,significantly increased
same,lowest concentration enhancing IKs,[1]; Vt -10 mV,30 nM
same,concentration of maximal effect on IKs,"[1]; Vt -10 mV, 3 s pulses",1 µM
same,net effect on rate of KvLQT1 activation,[4],slow the rate of KvLQT1 activation
same,shift in the voltage dependence of KvLQT1 activation,[4],-10 mV
same,effect on KvLQT1 current,[4]; 2 s pulses to -70 to +60 mV,increased KvLQT1
same,slope factor (k) of KvLQT1 activation,[4]; control 11 mV,13 mV
same,V1/2 of KvLQT1 activation,[4]; control -28 mV,-40 mV
same,effect on rate of KvLQT1 deactivation,[4]; voltages negative to -40 mV,slowed the rate of KvLQT1 deactivation
"Cc1cccc(N2C(=O)NC3(N=C(c4ccccc4)c4ccccc4N(C)C3=O)C2=O)c1 (stereo not drawn) [L6, 1-methyl-5-phenyl-1'-(3-tolyl)-spiro[3H-1,4-benzodiazepine-3,4'-imidazolidine]-2(1H),2',5'-trione]",activation at 10 µM,[1]; [6],31 ± 9%

# Reference: patent publication US6150357A, “Potassium channel agonists” (Merck & Co., Inc., priority 1999, dated 2000)
